Data on 31 compounds can be found in patent US8609847B2, “Dihydroquinolinone derivatives” (Taisho Pharmaceutical Co., Ltd, priority 2009, dated 2013).

The structures appear in SMILES notation. pIC50: −log10 of the molar value.

T1 sequence (Q9Y5N1 whole entry): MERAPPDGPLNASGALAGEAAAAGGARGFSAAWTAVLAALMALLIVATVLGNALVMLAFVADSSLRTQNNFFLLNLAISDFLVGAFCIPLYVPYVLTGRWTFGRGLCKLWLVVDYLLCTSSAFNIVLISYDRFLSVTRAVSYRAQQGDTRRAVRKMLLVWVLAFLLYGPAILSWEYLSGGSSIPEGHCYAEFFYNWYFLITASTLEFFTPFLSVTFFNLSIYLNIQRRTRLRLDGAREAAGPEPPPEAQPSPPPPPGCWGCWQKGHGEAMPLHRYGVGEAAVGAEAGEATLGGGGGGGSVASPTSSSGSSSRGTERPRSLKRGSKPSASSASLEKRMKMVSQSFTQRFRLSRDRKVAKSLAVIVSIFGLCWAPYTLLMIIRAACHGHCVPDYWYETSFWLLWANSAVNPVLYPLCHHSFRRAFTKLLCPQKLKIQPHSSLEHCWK

The assay concerns the target T1, human H3 receptor (Homo sapiens, UniProt Q9Y5N1).
T1 construct: purchased Perkin Elmer ES-392-M400UA; host or cells: CHO-K1 cells (recombinant expression), membrane preparation
Kind of assay: H3 Receptor Binding Test. The conditions noted are these: 50% inhibition of R(−)-α-methyl[3H]histamine (1 nM) binding; membrane preparation of human H3 receptor-expressing CHO-K1 cells. The method, then: A membrane preparation of human H3 receptor-expressing CHO-K1 cells (Perkin Elmer, ES-392-M400UA, 15 μg protein/200 μl), R(−)-α-methyl[^3H]histamine (Amersham, TRK-1017, specific activity: 1.74 TBq/mmol, 1 nM) and a test drug were reacted at room temperature for 1 hour. After completion of the reaction, the reaction mixture was subjected to suction filtration through a 0.3% polyethyleneimine-treated glass filter (GF/C). The glass filter was washed five times with 50 mM Tris-HCl washing solution (pH 7.4) containing 5 mM EDTA. After washing, the glass filter was dried and a scintillator was added thereto, followed by measurement of radioactivity on the filter using a liquid scintillation counter.
Binding of R(−)-α-methyl[^3H]histamine in the presence of 10 μM R(−)-α-methylhistamine was defined as non-specific binding, and the difference between total binding and non-specific binding of R(−)-α-methyl[^3H]histamine was defined as specific binding of R(−)-α-methyl[^3H]histamine. A fixed concentration (1 nM) of R(−)-α-methyl[^3H]histamine was reacted under the above conditions with each test drug at various concentrations to obtain an inhibition curve. The inhibition curve was used to determine the concentration (IC50) of each test drug required for 50% inhibition of R(−)-α-methyl[^3H]histamine binding.
For the compound `C[C@@H]1CCCN1CCCOc1ccc2c(c1)CCC(=O)N2c1ccc(C#N)cc1` [Compound No. 1, 4-[6-{3-[(2R)-2-methylpyrrolidin-1-yl]propoxy}-2-oxo-3,4-dihydroquinolin-1(2H)-yl]benzonitrile], the pIC50 is 8.36. For `C[C@@H]1CCCN1CCCOc1ccc2c(c1)CCC(=O)N2c1ccccc1` [Compound No. 2, 6-{3-[(2R)-2-methylpyrrolidin-1-yl]propoxy}-1-phenyl-3,4-dihydroquinolin-2(1H)-one], the pIC50 was 9.10. Then `Cc1ccc(N2C(=O)CCc3cc(OCCCN4CCC[C@H]4C)ccc32)cc1` [Compound No. 3, 1-(4-methylphenyl)-6-{3-[(2R)-2-methylpyrrolidin-1-yl]propoxy}-3,4-dihydroquinolin-2(1H)-one], with 9.00. For the compound `COc1ccc(N2C(=O)CCc3cc(OCCCN4CCC[C@H]4C)ccc32)cc1` [Compound No. 4, 1-(4-methoxyphenyl)-6-{3-[(2R)-2-methylpyrrolidin-1-yl]propoxy}-3,4-dihydroquinolin-2(1H)-one], the negative logarithm of the IC50 (pIC50) was 8.57.

Regarding `CCOc1ccc(N2C(=O)CCc3cc(OCCCN4CCC[C@H]4C)ccc32)cc1` [Compound No. 5, 1-(4-ethoxyphenyl)-6-{3-[(2R)-2-methylpyrrolidin-1-yl]propoxy}-3,4-dihydroquinolin-2(1H)-one], the pIC50 is 8.41. Then `C[C@@H]1CCCN1CCCOc1ccc2c(c1)CCC(=O)N2c1ccc(Cl)cc1` [Compound No. 7, 1-(4-chlorophenyl)-6-{3-[(2R)-2-methylpyrrolidin-1-yl]propoxy}-3,4-dihydroquinolin-2(1H)-one], with 8.80; and `C[C@@H]1CCCN1CCCOc1ccc2c(c1)CCC(=O)N2c1ccc(C(F)(F)F)cc1` [Compound No. 8, 6-{3-[(2R)-2-methylpyrrolidin-1-yl]propoxy}-1-[4-(trifluoromethyl)phenyl]-3,4-dihydroquinolin-2(1H)-one], with 8.80. On to `C[C@@H]1CCCN1CCCOc1ccc2c(c1)CCC(=O)N2c1ccc(OC(F)(F)F)cc1` [Compound No. 9, 6-{3-[(2R)-2-methylpyrrolidin-1-yl]propoxy}-1-[4-(trifluoromethoxy)phenyl]-3,4-dihydroquinolin-2(1H)-one], for which the pIC50 is 8.46.

`C[C@@H]1CCCN1CCCOc1ccc2c(c1)CCC(=O)N2c1ccc(CO)cc1` [Compound No. 10, 1-[4-(hydroxymethyl)phenyl]-6-{3-[(2R)-2-methylpyrrolidin-1-yl]propoxy}-3,4-dihydroquinolin-2(1H)-one]: the pIC50 was 8.80. As to `COCc1ccc(N2C(=O)CCc3cc(OCCCN4CCC[C@H]4C)ccc32)cc1` [Compound No. 11, 1-[4-(methoxymethyl)phenyl]-6-{3-[(2R)-2-methylpyrrolidin-1-yl]propoxy}-3,4-dihydroquinolin-2(1H)-one], the pIC50 was 8.54. On to `C[C@@H]1CCCN1CCCOc1ccc2c(c1)CCC(=O)N2c1ccc(C(=O)N2CCCC2)cc1` [Compound No. 14, 6-{3-[(2R)-2-methylpyrrolidin-1-yl]propoxy}-1-[4-(pyrrolidin-1-ylcarbonyl)phenyl]-3,4-dihydroquinolin-2(1H)-one], for which the pIC50 was 8.24.

Turning to `CC(=O)c1ccc(N2C(=O)CCc3cc(OCCCN4CCC[C@H]4C)ccc32)cc1` [Compound No. 15, 1-(4-acetylphenyl)-6-{3-[(2R)-2-methylpyrrolidin-1-yl]propoxy}-3,4-dihydroquinolin-2(1H)-one], the pIC50 is 8.44.

As for `C[C@@H]1CCCN1CCCOc1ccc2c(c1)CCC(=O)N2c1ccc(C(=O)C2CC2)cc1` [Compound No. 16, 1-[4-(cyclopropylcarbonyl)phenyl]-6-{3-[(2R)-2-methylpyrrolidin-1-yl]propoxy}-3,4-dihydroquinolin-2(1H)-one], the pIC50 is 7.96. Turning to `C[C@@H]1CCCN1CCCOc1ccc2c(c1)CCC(=O)N2c1ccc(N2CCOCC2)cc1` [Compound No. 17, 6-{3-[(2R)-2-methylpyrrolidin-1-yl]propoxy}-1-[4-(morpholin-4-yl)phenyl]-3,4-dihydroquinolin-2(1H)-one], the pIC50 is 7.39. As to `C[C@@H]1CCCN1CCCOc1ccc2c(c1)CCC(=O)N2c1ccc(N2CCCC2=O)cc1` [Compound No. 18, 6-{3-[(2R)-2-methylpyrrolidin-1-yl]propoxy}-1-[4-(2-oxopyrrolidin-1-yl)phenyl]-3,4-dihydroquinolin-2(1H)-one], the negative-log IC50 (pIC50) is 7.70. Regarding `C[C@@H]1CCCN1CCCOc1ccc2c(c1)CCC(=O)N2c1ccc(-c2cnco2)cc1` [Compound No. 19, 6-{3-[(2R)-2-methylpyrrolidin-1-yl]propoxy}-1-[4-(1,3-oxazol-5-yl)phenyl]-3,4-dihydroquinolin-2(1H)-one], the pIC50 was 8.40. In the case of `Cc1ccc(Oc2ccc(N3C(=O)CCc4cc(OCCCN5CCC[C@H]5C)ccc43)cc2)nn1` [Compound No. 20, 1-{4-[(6-methylpyridazin-3-yl)oxy]phenyl}-6-{3-[(2R)-2-methylpyrrolidin-1-yl]propoxy}-3,4-dihydroquinolin-2(1H)-one], the pIC50 was 9.00. In the case of `C[C@@H]1CCCN1CCCOc1ccc2c(c1)CCC(=O)N2c1cccc(C(=O)N(C)C)c1` [Compound No. 21, N,N-dimethyl-3-[6-{3-[(2R)-2-methylpyrrolidin-1-yl]propoxy}-2-oxo-3,4-dihydroquinolin-1(2H)-yl]benzamide], the pIC50 was 7.59.

Take `COc1cccc(N2C(=O)CCc3cc(OCCCN4CCC[C@H]4C)ccc32)c1` [Compound No. 22, 1-(3-methoxyphenyl)-6-{3-[(2R)-2-methylpyrrolidin-1-yl]propoxy}-3,4-dihydroquinolin-2(1H)-one]: the pIC50 is 8.80.

Regarding `COc1ccccc1N1C(=O)CCc2cc(OCCCN3CCC[C@H]3C)ccc21` [Compound No. 23, 1-(2-methoxyphenyl)-6-{3-[(2R)-2-methylpyrrolidin-1-yl]propoxy}-3,4-dihydroquinolin-2(1H)-one], the pIC50 is 8.92.

Consider `C[C@@H]1CCCN1CCCOc1ccc2c(c1)CCC(=O)N2c1cccc(F)c1` [Compound No. 24, 1-(3-fluorophenyl)-6-{3-[(2R)-2-methylpyrrolidin-1-yl]propoxy}-3,4-dihydroquinolin-2(1H)-one], for which the pIC50 is 9.04. The result for `COc1ccc(N2C(=O)CCc3cc(OCCCN4CCC[C@H]4C)ccc32)c(OC)c1` [Compound No. 25, 1-(2,4-dimethoxyphenyl)-6-{3-[(2R)-2-methylpyrrolidin-1-yl]propoxy}-3,4-dihydroquinolin-2(1H)-one] reads 8.70. The result for `COc1cc(F)cc(N2C(=O)CCc3cc(OCCCN4CCC[C@H]4C)ccc32)c1` [Compound No. 26, 1-(3-fluoro-5-methoxyphenyl)-6-{3-[(2R)-2-methylpyrrolidin-1-yl]propoxy}-3,4-dihydroquinolin-2(1H)-one] reads 8.62. Consider `C[C@@H]1CCCN1CCCOc1ccc2c(c1)CCC(=O)N2c1cc(F)cc(F)c1` [Compound No. 27, 1-(3,5-difluorophenyl)-6-{3-[(2R)-2-methylpyrrolidin-1-yl]propoxy}-3,4-dihydroquinolin-2(1H)-one], for which the pIC50 was 8.68. As for `C[C@@H]1CCCN1CCCOc1ccc2c(c1)CCC(=O)N2c1ccc(F)c(F)c1` [Compound No. 28, 1-(3,4-difluorophenyl)-6-{3-[(2R)-2-methylpyrrolidin-1-yl]propoxy}-3,4-dihydroquinolin-2(1H)-one], the pIC50 is 9.00. For the compound `C[C@@H]1CCCN1CCCOc1ccc2c(c1)CCC(=O)N2c1ccc(F)cc1F` [Compound No. 29, 1-(2,4-difluorophenyl)-6-{3-[(2R)-2-methylpyrrolidin-1-yl]propoxy}-3,4-dihydroquinolin-2(1H)-one], the pIC50 is 9.00. On to `C[C@@H]1CCCN1CCCOc1ccc2c(c1)CCC(=O)N2c1ccc(Cl)cc1F` [Compound No. 30, 1-(4-chloro-2-fluorophenyl)-6-{3-[(2R)-2-methylpyrrolidin-1-yl]propoxy}-3,4-dihydroquinolin-2(1H)-one], for which the pIC50 was 8.96.

Turning to `C[C@@H]1CCCN1CCCOc1ccc2c(c1)CCC(=O)N2c1cc(Cl)cc(C#N)c1` [Compound No. 31, 3-chloro-5-[6-{3-[(2R)-2-methylpyrrolidin-1-yl]propoxy}-2-oxo-3,4-dihydroquinolin-1(2H)-yl]benzonitrile], the pIC50 was 8.72.

In the case of `Cc1ccc(N2C(=O)CCc3cc(OCCCN4CCC[C@H]4C)ccc32)cc1C#N` [Compound No. 32, 2-methyl-5-[6-{3-[(2R)-2-methylpyrrolidin-1-yl]propoxy}-2-oxo-3,4-dihydroquinolin-1(2H)-yl]benzonitrile], the pIC50 was 8.57. As for `COc1ccc(N2C(=O)CCc3cc(OCCCN4CCC[C@H]4C)ccc32)cc1C#N` [Compound No. 33, 2-methoxy-5-[6-{3-[(2R)-2-methylpyrrolidin-1-yl]propoxy}-2-oxo-3,4-dihydroquinolin-1(2H)-yl]benzonitrile], the pIC50 was 8.40.

For `C[C@@H]1CCCN1CCCOc1ccc2c(c1)CCC(=O)N2c1ccccn1` [Compound No. 34, 6-{3-[(2R)-2-methylpyrrolidin-1-yl]propoxy}-1-(pyridin-2-yl)-3,4-dihydroquinolin-2(1H)-one], the pIC50 is 8.09.
